Laboratory results as given in US20180110754A1, “CENICRIVIROC FOR THE TREATMENT OF FIBROSIS” (Tobira Therapeutics, Inc., priority 2015, published 2018).

Test: Study 202: treatment-emergent laboratory abnormalities (DAIDS grades; CPK, ALT, AST, bilirubin)
Assay type: in vivo
From the text: The number of subjects with graded treatment-emergent laboratory abnormalities in selected liver parameters of interest is shown in Table 34. No Grade 4 ALT or AST elevations were observed. Except for one Grade 3 AST elevation, all ALT and AST elevations were Grade 1 or Grade 2. […] All abnormalities in bilirubin were Grade 1 or Grade 2. […]

[1] = CVC 100 mg (N = 58), through Week 48
[2] = CVC 200 mg (N = 57), through Week 48

CCCCOCCOc1ccc(-c2ccc3c(c2)/C=C(/C(=O)Nc2ccc([S@@+]([O-])Cc4cncn4CCC)cc2)CCCN3CC(C)C)cc1 [CVC, (S)-8-[4-(2-Butoxyethoxy)phenyl]-1-isobutyl-N-(4-{[(1-propyl-1H-imidazol-5-yl)methyl]sulfinyl}phenyl)-1,2,3,4-tetrahydro-1-benzazocine-5-carboxamide]
Alanine aminotransferase (ALT) abnormality, any grade, n subjects [1]: 7 | Any Grade 3 or Grade 4 laboratory abnormality, n subjects [1]: 7 | Aspartate aminotransferase (AST) abnormality, any grade, n subjects [1]: 11 | Aspartate aminotransferase (AST) increased (Grade 3 or 4), n subjects [1]: 1 | Bilirubin abnormality, any grade, n subjects [1]: 4 | Bilirubin, worst Grade 1, n subjects [1]: 1 | Bilirubin, worst Grade 2, n subjects [1]: 3 | Bilirubin, worst Grade 3, n subjects [1]: 0 | Bilirubin, worst Grade 4, n subjects [1]: 0 | CPK increased, worst Grade 3, n subjects [1]: 2 | CPK increased, worst Grade 4, n subjects [1]: 1 | Creatine phosphokinase (CPK) increased (Grade 3 or 4), n subjects [1]: 3 | Fibrinogen decreased (Grade 3 or 4), n subjects [1]: 0 | Fibrinogen decreased, worst Grade 3, n subjects [1]: 0 | Fibrinogen decreased, worst Grade 4, n subjects [1]: 0 | Hemoglobin decreased (Grade 3 or 4), n subjects [1]: 1 | Hemoglobin decreased, worst Grade 3, n subjects [1]: 0 | Hemoglobin decreased, worst Grade 4, n subjects [1]: 1 | Neutrophils decreased (Grade 3 or 4), n subjects [1]: 2 | Neutrophils decreased, worst Grade 3, n subjects [1]: 2 | Neutrophils decreased, worst Grade 4, n subjects [1]: 0 | Phosphate decreased (Grade 3 or 4), n subjects [1]: 2 | Phosphate decreased, worst Grade 3, n subjects [1]: 2 | Phosphate decreased, worst Grade 4, n subjects [1]: 0 | Prothrombin time/INR increased, worst Grade 3, n subjects [1]: 0 | Prothrombin time/INR increased, worst Grade 4, n subjects [1]: 1 | Subjects with Grade 3 or 4 increases in CPK (CVC 200 mg): 9 subjects | Any graded (Grade 1-4) treatment-emergent laboratory abnormality, n subjects (CVC 200 mg (N = 57)): 55 | Laboratory abnormality, worst Grade 1, n subjects (CVC 200 mg (N = 57)): 16 | Laboratory abnormality, worst Grade 2, n subjects (CVC 200 mg (N = 57)): 27 | Laboratory abnormality, worst Grade 3 (Any Grade 3 abnormality), n subjects (CVC 200 mg (N = 57)): 9 | Laboratory abnormality, worst Grade 4 (Any Grade 4 abnormality), n subjects (CVC 200 mg (N = 57)): 3 | ALT, worst Grade 1, n subjects [2]: 6 | ALT, worst Grade 2, n subjects [2]: 2 | ALT, worst Grade 3, n subjects [2]: 0 | ALT, worst Grade 4, n subjects [2]: 0 | AST, worst Grade 1, n subjects [2]: 6 | AST, worst Grade 2, n subjects [2]: 4 | AST, worst Grade 3, n subjects [2]: 0 | AST, worst Grade 4, n subjects [2]: 0 | Alanine aminotransferase (ALT) abnormality, any grade, n subjects [2]: 8 | Any Grade 3 or Grade 4 laboratory abnormality, n subjects [2]: 12 | Aspartate aminotransferase (AST) abnormality, any grade, n subjects [2]: 10 | Aspartate aminotransferase (AST) increased (Grade 3 or 4), n subjects [2]: 0 | Bilirubin abnormality, any grade, n subjects [2]: 3 | Bilirubin, worst Grade 1, n subjects [2]: 2 | Bilirubin, worst Grade 2, n subjects [2]: 1 | Bilirubin, worst Grade 3, n subjects [2]: 0 | Bilirubin, worst Grade 4, n subjects [2]: 0 | CPK increased, worst Grade 3, n subjects [2]: 6 | CPK increased, worst Grade 4, n subjects [2]: 3 | Creatine phosphokinase (CPK) increased (Grade 3 or 4), n subjects [2]: 9 | Fibrinogen decreased (Grade 3 or 4), n subjects [2]: 2 | Fibrinogen decreased, worst Grade 3, n subjects [2]: 2 | Fibrinogen decreased, worst Grade 4, n subjects [2]: 0 | Hemoglobin decreased (Grade 3 or 4), n subjects [2]: 0 | Hemoglobin decreased, worst Grade 3, n subjects [2]: 0 | Hemoglobin decreased, worst Grade 4, n subjects [2]: 0 | Neutrophils decreased (Grade 3 or 4), n subjects [2]: 0 | Neutrophils decreased, worst Grade 3, n subjects [2]: 0 | Neutrophils decreased, worst Grade 4, n subjects [2]: 0 | Phosphate decreased (Grade 3 or 4), n subjects [2]: 2 | Phosphate decreased, worst Grade 3, n subjects [2]: 2 | Phosphate decreased, worst Grade 4, n subjects [2]: 0 | Prothrombin time/INR increased, worst Grade 3, n subjects [2]: 0 | Prothrombin time/INR increased, worst Grade 4, n subjects [2]: 0
